The values below are quoted from earlier work in patent US6476042B1, “Combination therapy for the treatment of migraine” (Pfizer Inc., priority 1999, dated 2002).

The subject of the data set is carotid vascular resistance. The settings on record: anaesthetized dog.

For the molecule `CNS(=O)(=O)Cc1ccc2[nH]cc(CCN(C)C)c2c1` [Sumatriptan, sumatriptan], the “effect on carotid vascular resistance” value is “selective increase”.
